Here are results for four molecules from WO2016087994A1, “Btk inhibitors to treat solid tumors through modulation of the tumor microenvironment” (dated 2016).

“Also recorded” adds a separate entry of the source.

In data set [1] the test system is human platelet-mediated thrombosis. Briefly: In vivo human platelet thrombus formation after laser injury in VWF HA1 mice. Also noted: species or system human platelets in VWF HA1 mice.
The subject of data set [2] is rituximab-coated Raji cells. Briefly: Rituximab ADCC, chromium release, Raji targets. As to conditions: 1 μM; healthy donor NK cells / Raji; listed as ibrutinib. It is filed as cell-based, human.
The subject of data set [3] is GPVI platelet aggregation. Briefly: GPVI (convulxin-induced) human platelet aggregation. It is filed as cell-based.
Data set [4] deals with CLL/lymphoid malignancies. As to conditions: human, in vivo; cited from earlier work.
For data set [5] the following is noted: 420 mg QD; cited from earlier work.
For the next data set, the system named is CD4 + T cells. Briefly: Th17 and Treg development of CD4+ T cells. The data set is classed as cell-based.
In data set [6] the test system is CD8 + T cells. Briefly: CD8+ T cell viability. The data set is classed as cell-based. The conditions noted are these: higher concentrations of ibrutinib; any concentration of Formula (II).
Data set [7] concerns B cell receptor (CD69 on CD19+ B cells). Put plainly: Inhibition of BCR signaling (CD69) on B cells in whole blood. It is filed as cell-based. The conditions noted are these: Homo sapiens, 18 h.
The test system of data set [8] is CD8 + T cells. Put plainly: CD8+ T cell IFN-γ levels. It is filed as cell-based. As to conditions: relative to vehicle.
Data set [9] relates to CD8 + T cells with B lymphoblast targets. Briefly: Cytotoxic T cell (CTL) assay. It is filed as cell-based. The conditions noted are these: 500 nM, relative to vehicle.
Data set [10] has as its target epidermal growth factor receptor (EGFR) (Homo sapiens, UniProt P00533). The conditions noted are these: cited from earlier work.
In data set [11] the test system is metastatic pancreatic cancer. As to conditions: Phase 3; P < 0.001; cited from earlier work.
Another data set deals with CLL. As to conditions: cited from earlier work.
Where [12] appears, read: Phase 1, previously treated CLL, monotherapy.

epidermal growth factor receptor (EGFR), sequence (P00533 25-1210): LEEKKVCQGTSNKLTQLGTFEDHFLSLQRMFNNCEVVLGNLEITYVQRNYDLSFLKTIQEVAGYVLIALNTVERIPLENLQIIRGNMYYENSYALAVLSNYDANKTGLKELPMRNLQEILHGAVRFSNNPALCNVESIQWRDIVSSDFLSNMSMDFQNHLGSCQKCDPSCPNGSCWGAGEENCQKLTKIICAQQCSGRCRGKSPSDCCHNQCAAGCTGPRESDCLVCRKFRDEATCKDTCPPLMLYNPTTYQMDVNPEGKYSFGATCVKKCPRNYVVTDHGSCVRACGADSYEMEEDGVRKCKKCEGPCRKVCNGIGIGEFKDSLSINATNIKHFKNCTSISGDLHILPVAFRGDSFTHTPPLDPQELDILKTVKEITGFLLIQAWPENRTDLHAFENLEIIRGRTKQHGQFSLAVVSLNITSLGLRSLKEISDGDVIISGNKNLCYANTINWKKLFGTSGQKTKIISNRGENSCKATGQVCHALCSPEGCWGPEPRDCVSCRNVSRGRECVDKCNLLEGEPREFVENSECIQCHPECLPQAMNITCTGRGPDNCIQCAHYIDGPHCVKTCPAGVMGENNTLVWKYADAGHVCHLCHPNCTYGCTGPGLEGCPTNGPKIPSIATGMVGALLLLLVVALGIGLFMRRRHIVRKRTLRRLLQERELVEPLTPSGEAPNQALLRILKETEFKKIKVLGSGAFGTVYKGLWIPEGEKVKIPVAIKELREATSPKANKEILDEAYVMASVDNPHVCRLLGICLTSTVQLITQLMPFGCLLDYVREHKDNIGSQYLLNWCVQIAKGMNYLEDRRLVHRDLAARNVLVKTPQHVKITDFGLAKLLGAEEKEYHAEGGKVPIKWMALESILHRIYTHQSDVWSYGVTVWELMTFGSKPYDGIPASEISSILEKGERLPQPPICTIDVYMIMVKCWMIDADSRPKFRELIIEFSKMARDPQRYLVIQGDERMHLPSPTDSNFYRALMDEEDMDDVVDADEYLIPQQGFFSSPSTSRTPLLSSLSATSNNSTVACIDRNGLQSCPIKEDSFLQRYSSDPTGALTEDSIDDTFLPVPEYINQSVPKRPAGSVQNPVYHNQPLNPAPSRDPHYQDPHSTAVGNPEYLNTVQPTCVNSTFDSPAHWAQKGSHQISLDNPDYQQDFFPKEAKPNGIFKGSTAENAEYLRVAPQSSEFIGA

`C=CC(=O)Nc1cccc(Nc2nc(Nc3ccc(OCCOC)cc3)ncc2F)c1` [Formula (XVII), N-(3-((5-fluoro-2-((4-(2-methoxyethoxy)phenyl)amino)pyrimidin-4-yl)amino)phenyl)acrylamide, reference compound]: the “effect on thrombus formation (in words)” value in [1] is “interfere with thrombus formation; also recorded: an effect similar to Formula (X) (ibrutinib)”.
The IC50 is the midpoint of a concentration-inhibition curve. As usually defined, the EC50 is the concentration needed to bring the measured effect to its halfway point. As to `C=CC(=O)N1CCC[C@@H](n2nc(-c3ccc(Oc4ccccc4)cc3)c3c(N)ncnc32)C1` [Formula (X), l-[(3i?)-3-[4-amino-3-(4-phenoxyphenyl)-lH-pyrazolo[3,4-i]pyrimidin-l-yl]piperidin-l-yl]prop-2-en-l-one], the “inhibition of rituximab ADCC (in words)” value in data set [2] is reported as “completely inhibited ADCC; also recorded: strongly inhibited the antibody-dependent lysis of target cells”. In data set [3], the “inhibition of GPVI platelet aggregation (in words)” value is “significantly inhibits GPVI platelet aggregation”. Also, the IC50 in data set [3] (Homo sapiens, Platelet, read-out: IC50, GPVI platelet aggregation) stood at 0.13 µM. Also, in data set [4], the “onset of lymphocytosis after start of therapy” value is listed as 1-2 weeks and the “time to plateau of lymphocytosis” value is 2-3 cycles. In [5], the “bleeding events in CLL” value is reported as 63%. Moreover, in the data set on CD4 + T cells, the “Th17 development (in words)” value was “profound inhibition of Thl7 cells” and the “Treg development (in words)” value is listed as “increase in Treg development”. In the data set on CD8 + T cells [6], the “CD8+ T cell viability (in words)” value is reported as “strong, negative effect on CD8 + T cell viability”. The response in [7] was half-maximal at 0.0061 µM (EC50). For the same molecule, the “CD8+ T cell function as IFN-γ level (in words)” value in the data set with CD8 + T cells [8] is recorded as “affects CD8 + T cell function; also recorded: significant loss of function”. The “CD8+ T cell function as % cytotoxicity (in words)” value in data set [9] is on record as “affects CD8 + T cell function”. Further, the “inhibition of EGFR (in words)” value in [10] is recorded as “inhibits epidermal growth factor receptor (EGFR)”.
On to `Nc1ccn([C@@H]2O[C@H](CO)[C@@H](O)C2(F)F)c(=O)n1` [gemcitabine, 4-amino-l-((2i?,4i?,5i?)-3,3-difluoro-4-hydroxy-5-(hydroxymethyl)tetrahydrofuran-2-yl)pyrimidin-2(lH)-one], for which, in data set [11], the ORR is reported as 7%, the “median OS” value is recorded as 6.7 months and the “median PFS” value is reported as 3.7 months.
On to “obinutuzumab: humanized monoclonal antibody directed against CD20”, for which, in the data set on CLL (setting [12]), the MRD-negative complete responses is recorded as 1 and the response rate is on record as 62%. Moreover, in the data set with CLL (R/R CLL, Phase 1 portion, n=13), the “infusion related reactions (IRR), Grade 3” value was 15%; the “infusion related reactions (IRR), Grade 4 (in words)” value was “no Grade 4”; the “infusion related reactions (IRR), all grade” value was 100 % of patients. Also, in the data set on CLL (R/R CLL, Phase 2 portion), the “Grade 3 reactions among those with hypotension” value is given as 25%, the “IRR cases developing symptoms of hypotension” value is reported as 60 % of cases and the “patients with IRR” value was 95 % of patients.
